Laboratory results published in patent publication US20080004290A1, “Anti-Cancer Agents” (THE UNIVERSITY OF QUEENSLAND, priority 2003, published 2008).
Like-named read-outs stand apart in the source and are kept apart here.

Experiments:
[1] = system: NFF, neonatal foreskin fibroblasts; test: Cell survival assay (clonogenic survival, SRB), normal cells; format: cell-based, human; details: SRB
Protocol: (§1) The cytotoxicities of the compounds of the invention were determined by clonogenic survival of human cancer cells (MM96L, melanoma) and human normal cells (NFF, neonatal foreskin fibroblasts). Cells were incubated with the compounds at various concentrations of compound (0.01-10 μg/mL) for 24 hours, washed, and then grown for a further four days in the absence of hydroxamic acid before determining cell survival by cell count. The final readout involved staining with sulforhodamine B (SRB), a cost-effective method amenable to automation and high throughput analysis. At the technical level, “cell sensitivity” is often inferred from short term (1-2 day) observations such as apoptosis, which may not be a satisfactory model of clonogenic survival.
(§2) Cell Lines and Culture Medium. All cell lines used in this study have been described previously (Parsons et al., 1986; Todaro et al., 1980; Glenn et al., 2004). All cell lines were cultured in 10% heat-inactivated foetal calf serum (CSL, Australia) in RPMI 1640 medium supplemented with 100 U/mL penicillin, 100 μg/mL streptomycin, and 3 mM HEPES at 5% CO2, 99% humidity at 37° C. Primary human fibroblasts were obtained from neonatal foreskins and cultured in the above medium. Routine mycoplasma tests were performed using Hoechst stain^i and were always negative.
(§3) Cell Survival Assay. Cells were plated into 96-well microtitre plates at 5×10^3 cells/well, and allowed to adhere overnight. Test compounds were added to culture medium at the indicated concentrations, and plates incubated in the above conditions for 24 hours. Following this incubation period, compounds and media were removed, and replaced with fresh culture medium. Cells were then grown for a further 72 hours before assay using sulforhodamine B (SRB; Sigma, St. Louis, Mo.) as previously described. Briefly, the culture medium was removed from the 96-well microtitre plates and the plates washed twice with phosphate buffered saline (PBS), before the cells were fixed with methylated spirits for 15 minutes. The plates were then rinsed with tap water and the fixed cells stained with 50 μL/well of SRB solution (0.4% sulforhodamine B (w/v) in 1% (v/v) acetic acid) over a period of 1 hour. The SRB solution was then removed from the wells and the plates rapidly washed two times with 1% (v/v) acetic acid. Protein bound dye was then solubilised with the addition of 100 μL of 10 mM unbuffered Tris, and incubated for 15 min at 25° C. Plates were then read at 564 nm on a VERSA max tunable microplate reader (Molecular Devices, Sunnyvale, Calif.).

MM96L melanoma cells = test: Cell survival assay (clonogenic survival, SRB); format: cell-based, human; details: for SI (Selectivity Index = IC50 (NFF)/IC50 (MM96L)): NFF vs MM96L
Protocol: as §1, §2, §3

[2] = Homo sapiens, Fibroblast, NFF normal fibroblasts, 24 h with compound, further 72 h growth, read-out: IC50 (uM) NFF
[3] = Homo sapiens, MM96L, MM96L melanoma, 24 h with compound, further 72 h growth, SRB, read-out: IC50 (uM) MM96L
[4] = Homo sapiens, Fibroblast, 24 h, Table 6, 24 hours with compound, further growth, read-out: IC50 (μM) NFF
[5] = Homo sapiens, MM96L, 24 h, Table 6, 24 hours with compound, further growth, SRB, read-out: IC50 (μM) MM96L
[6] = Table 6, IC50 (NFF)/IC50 (MM96L)
[7] = Table 8, 24 hours with compound, further growth, read-out: IC50 (μM) NFF
[8] = Table 8, 24 hours with compound, further growth, SRB, read-out: IC50 (μM) MM96
[9] = Table 8, IC50 (NFF)/IC50 (MM96L)
[10] = Table 5, 24 hours with compound, further growth, read-out: IC50 NFF
[11] = Table 5, 24 hours with compound, further growth, SRB, read-out: IC50 MM96L
[12] = Table 5, Selectivity Index = IC50 (NFF)/IC50 (MM96L)

SMILES: O=C(CCCCC[C@H](NC(=O)c1ccc([N+](=O)[O-])cc1)C(=O)NCc1ccccc1)NO (racemic) [Example 135]
- IC50 [1, 2]: 9 ± 2 µM
- IC50 (MM96L melanoma cells; [3]): 6 ± 1 µM
- SI (Selectivity Index = IC50 (NFF)/IC50 (MM96L)) (MM96L melanoma cells): 1.5

SMILES: CN(C)c1ccc(C(=O)N[C@@H](CSCCCC(=O)NO)C(=O)Nc2cccc3cc4ccccc4cc23)cc1 [Example 71]
- IC50 [1, 4]: 2.2 ± 0.3 µM
- IC50 (MM96L melanoma cells; [5]): 1.7 ± 0.3 µM
- Selectivity (MM96L melanoma cells; [6]): 1.3

SMILES: CN(C)c1ccc(C(=O)N[C@@H](CSCCCC(=O)NO)C(=O)NC23CC4CC(CC(C4)C2)C3)cc1 [Example 92]
- IC50 [1, 4]: 7.1 ± 0.5 µM
- IC50 (MM96L melanoma cells; [5]): 1.48 ± 0.08 µM
- Selectivity (MM96L melanoma cells; [6]): 4.8

SMILES: CN(C)c1ccc(C(=O)N[C@@H](CSCCCC(=O)NO)C(=O)Nc2cccc3cccnc23)cc1 [Example 68]
- IC50 [1, 4]: 3 ± 0.3 µM
- IC50 (MM96L melanoma cells; [5]): 0.61 ± 0.08 µM
- Selectivity (MM96L melanoma cells; [6]): 5.0

SMILES: CN(C)c1ccc(C(=O)NC(CSCCCC(=O)NO)C(=O)NCc2ccc(C(=O)NC(c3ccccc3)C(O)c3ccccc3)cc2)cc1 (stereo not shown) [Example 112]
- IC50 [1, 7]: 14.3 µM
- IC50 (MM96L melanoma cells; [8]): 2.87 µM
- Selectivity (MM96L melanoma cells; [9]): 5.0

SMILES: O=C(/C=C/c1ccccc1)N[C@@H](CSCCCC(=O)NO)C(=O)Nc1ccncc1 [Example 97]
- IC50 ([1]; Homo sapiens, Fibroblast, 24 h, Table 7, 24 hours with compound, further growth, read-out: IC50 (μM) NFF): 1.6 ± 0.3 µM
- IC50 (MM96L melanoma cells; Homo sapiens, MM96L, 24 h, Table 7, 24 hours with compound, further growth, SRB, read-out: IC50 (μM) MM96L): 0.5 ± 0.2 µM
- Selectivity (MM96L melanoma cells; Table 7, IC50 (NFF)/IC50 (MM96L)): 3.3

SMILES: CN(C)c1ccc(C(=O)N[C@@H](CSCCCC(=O)NO)C(=O)NC2CCN(Cc3ccccc3)CC2)cc1 [Example 90]
- IC50 [1, 4]: 1.28 ± 0.08 µM
- IC50 (MM96L melanoma cells; [5]): 1.5 ± 0.2 µM
- Selectivity (MM96L melanoma cells; [6]): 0.9

SMILES: O=C(CCCSC[C@H](NC(=O)c1ccc(-c2ccccc2)cc1)C(=O)NCc1ccccc1)NO [Example 25]
- IC50 [1, 10]: 2.8 ± 0.2 µM
- IC50 (MM96L melanoma cells; [11]): 0.9 ± 0.1 µM
- Selectivity (MM96L melanoma cells; [12]): 3.1

SMILES: O=C(CCCSC[C@H](NC(=O)c1ccc(F)cc1)C(=O)NCc1ccccc1)NO [Example 29]
- IC50 [1, 10]: 26 ± 1 µM
- IC50 (MM96L melanoma cells; [11]): 5.2 ± 0.6 µM
- Selectivity (MM96L melanoma cells; [12]): 5.0

SMILES: O=C(CCCSC[C@H](NC(=O)c1ccccc1[N+](=O)[O-])C(=O)NCc1ccccc1)NO [Example 32]
- IC50 [1, 10]: > 100 µM
- IC50 (MM96L melanoma cells; [11]): 10.6 ± 0.1 µM
- Selectivity (MM96L melanoma cells; [12]): >10

SMILES: CN(C)c1ccc(C(=O)N[C@@H](CSCCCC(=O)NO)C(=O)Nc2cccc3c2CCCC3)cc1 [Example 66]
- IC50 [1, 4]: 2.2 ± 0.3 µM
- IC50 (MM96L melanoma cells; [5]): 0.5 ± 0.1 µM
- IC50 (MM96L melanoma cells; Homo sapiens, MM96L, most preferred compounds, exemplary examples, read-out: potency of IC50 against the MM96 melanoma cells): ≤ 0.5 µM
- Selectivity (MM96L melanoma cells; [6]): 4.4

SMILES: CN(C)c1ccc(NC(=O)c2ccc(CNC(=O)[C@H](CSCCCC(=O)NO)NC(=O)c3ccc(N(C)C)cc3)cc2)cc1 [Example 109]
- IC50 [1, 7]: 2.42 µM
- IC50 (MM96L melanoma cells; [8]): 0.54 µM
- Selectivity (MM96L melanoma cells; [9]): 4.5

SMILES: CN(C)c1ccc(C(=O)N[C@@H](CSCCCC(=O)NO)C(=O)NCc2ccc(C(=O)Nc3ccc(-c4ccccc4)cc3)cc2)cc1 [Example 111]
- IC50 [1, 7]: 1.11 µM
- IC50 (MM96L melanoma cells; [8]): 0.51 µM
- Selectivity (MM96L melanoma cells; [9]): 2.2

SMILES: O=C(/C=C/c1c[nH]c2ccccc12)N[C@@H](CCCCCC(=O)NO)C(=O)NCc1ccccc1 [Example 167]
- IC50 [1, 2]: 10.4 µM
- IC50 (MM96L melanoma cells; [3]): 3.24 µM
- SI (Selectivity Index = IC50 (NFF)/IC50 (MM96L)) (MM96L melanoma cells): 3.2

SMILES: CN(C)c1ccc(C(=O)N[C@@H](CSCCCC(=O)NO)C(=O)NCc2ccc(C(=O)NCc3ccccn3)cc2)cc1 [Example 108]
- IC50 [1, 7]: 16.9 µM
- IC50 (MM96L melanoma cells; [8]): 2.28 µM
- Selectivity (MM96L melanoma cells; [9]): 7.4

SMILES: COc1cc(OC)cc(C(=O)N[C@@H](CSCCCC(=O)NO)C(=O)NCc2ccccc2)c1 [Example 30]
- IC50 [1, 10]: 4.5 ± 0.6 µM
- IC50 (MM96L melanoma cells; [11]): 1.7 ± 0.3 µM
- Selectivity (MM96L melanoma cells; [12]): 2.6

SMILES: O=C(CCCSC[C@H](NC(=O)c1cnccn1)C(=O)NCc1ccccc1)NO [Example 35]
- IC50 [1, 10]: 62 ± 5 µM
- IC50 (MM96L melanoma cells; [11]): 19 ± 2 µM
- Selectivity (MM96L melanoma cells; [12]): 3.3

SMILES: O=C(CCCSC[C@H](NC(=O)Cc1cccc([N+](=O)[O-])c1)C(=O)NCc1ccccc1)NO [Example 41]
- IC50 [1, 10]: > 100 µM
- IC50 (MM96L melanoma cells; [11]): 12 ± 1 µM
- Selectivity (MM96L melanoma cells; [12]): >8
